The text below walks through data of patent publication EP0304279B1, “Peptide determinant associated with immunity” (THE BOARD OF TRUSTEES OF THE LELAND STANFORD JUNIOR …, priority 1987, dated 1997).

Assay [1] deals with clone F1-28, a MBP-specific T-cell. In words: Stimulation of MBP-specific T-cell clone by synthetic peptide (proliferation assay). It counts as cell-based. The settings on record: T-cell clone F1-28 recognizing the autoantigen myelin basic protein. From the text:
The determinant of myelin basic protein (MBP) P5-17 (Zamvil, et al., Nature, supra) contains a pattern P-S-Q-R-H-G-S-K-Y-L-A-T-A. Using the algorithm for the subject motif for predicting T-cell clones the epitope of the clone F1-28, a MBP-specific T-cell was isolated (Zamvil, et al., J. Exp. Med. (1985) 162: 2107), which clone recognizes the autoantigen myelin basic protein. A peptide corresponding to amino acids P35-47 containing two patterns GILD and RFFS was synthesized and shown to be stimulatory.
(§1) Proliferation Assay: Proliferative responses were determined as described previously (Zamvil et al., Nature (1985) 317:355). 1x10^4 T-cells were cultured with 5x10^5 X-irradiated (3,000 rad) PL/J splenic APC in 0.2 ml of culture media in 96 well flat-bottomed microtiter plates (Falcon, 3072). Peptides were added to culture giving the final concentrations indicated. At 48 hours incubation, each well was pulsed with 1 µCi ^3H-thymidine and harvested 16 hours later. The mean c.p.m. thymidine incorporation was calulated for triplicate cultures. Standard deviations from replicate cultures were within 10% mean value.

A further assay concerns mouse T-cells. As to the kind of experiment: Proliferation assay (3H-thymidine incorporation) of MHC-restricted T-cells with PL/J splenic APC. It counts as cell-based. On the procedure:
as §1
A general note: Uptake of a labelled nucleoside into DNA is a usual measure of proliferation.

In assay [2] the test system is clone F1-28, a MBP-specific T-cell. As to conditions: Zamvil et al., Nature (1986) 324:258; cited from earlier work.

Regarding “G-I-L-D-S-I-G-R-F-F-S-G-D-R-G-A-P (GILDSIGRFFSGDRGAP) [P35-47, peptide of myelin basic protein containing two patterns GILD and RFFS]”, the T-cell stimulation entry (in assay [1]; with mouse T-cells (mouse T-cells restricted by MHC I-E(u)α E(u)β)) was “stimulatory” in each case.

“L-D-S-I-G-R-F-F-S-G-D-R-G-A-P (LDSIGRFFSGDRGAP)”: the “stimulatory epitope defined with overlapping peptides” value in assay [2] is “stimulatory epitope”.

With “P89-101: P89-101 of the human myelin basic protein comprising the motif HFFK (PHLIRLFSRDAPG; UniProt P02686 89-101, looked up, fragment)”, in the assay with mouse T-cells (mouse T-cells restricted by I-A(s)α A(s)β), the T-cell stimulation entry is given as “stimulatory”.
